Measurements published in patent US20140044814A1, “Composition and Methods for Permanent Hair Removal” (priority 2012, published 2014).

Test: Sea salt added to the turmeric mixture, folliculitis after treatment
Assay type: in vivo
Description: It is believed that the sea salt help to open or penetrate the cellular wall. […] It is believed that the sea salt should be between about 1-10 parts of the turmeric mixture, with the remaining 90-99 parts being turmeric and milk/clay/etc. A presently preferred range is about 1-2 parts sea salt to about […] turmeric mixture.

folliculitis after treatment: appears to help to minimize folliculitis
Substance: sea salt
